{"source": "paper PMC8950995", "about": "“Identification and Functional Analysis of Glutathione S-Transferases from Sitophilus zeamais in Olfactory Organ” (Insects, 2022)", "target": "T1, SzeaGSTd1 (Sitophilus zeamais, UniProt A0A8F0D7V2)", "T1 sequence (A0A8F0D7V2 22-247)": "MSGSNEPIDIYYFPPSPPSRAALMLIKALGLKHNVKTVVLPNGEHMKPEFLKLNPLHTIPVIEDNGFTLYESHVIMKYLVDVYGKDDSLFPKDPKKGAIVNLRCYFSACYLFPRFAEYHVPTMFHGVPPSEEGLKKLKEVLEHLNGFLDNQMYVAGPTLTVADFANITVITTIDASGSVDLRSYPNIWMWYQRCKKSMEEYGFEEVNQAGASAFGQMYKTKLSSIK", "assay": "GSH conjugation, absorbance at […] nm, Michaelis-Menten", "type": "biochemical", "settings": "1 mM GSH, 100 mM phosphate pH 7.2"}
{"smiles": "O=[N+]([O-])c1ccc(Cl)c([N+](=O)[O-])c1", "note": "[CDNB, 1-chloro-2,4-dinitrobenzene]", "values": [{"measurement": "Km", "value": "420 ± 40", "unit": "µM"}]}
